Laboratory results published in article PMC8639922, “KSHV transactivator-derived small peptide traps coactivators to attenuate MYC and inhibits leukemia and lymphoma cell growth” (Communications Biology, 2021).

Test system: BC-1 cells
Experiment: MTT assay, deletion and mutant peptides
Type: cell-based, human
Text: Fig. 2 Viral and cellular responses to K-Rta peptide; identification of VGN50. a Protein sequence alignment. Homologous protein sequences were searched for with BLAST and extracted from other gamma-herpesviral homologs. The consensus protein sequence is depicted at the bottom of table. b Peptide design. Deletion peptides were designed based on the consensus sequence in a. The TAT protein sequence was used as a cell-penetrating peptide (CPP) and placed downstream from the K-Rta protein sequence. (d-R) D amino acid arginine, (ORN) ornithine, (bAla) beta alanine. c Sub cellular peptide localization. Cy5-labeled peptide 1 was used to track subcellular localization. Nuclei were visualized by DAPI staining. The scale is indicated in the panel. d MTT assays with deletion and mutant peptides. Peptide listed in b were incubated with BC-1 cells and MTT conversion was measured 48 h after incubation. The OD of mock-treated samples were set as 100%, and OD from detergent-treated cells were set as 0%. The amount of each peptide used for incubation is depicted along the x-axis. Mean percentage viability ±SD were calculated for each treatment group (n = 3 samples). Peptide 1 was renamed as VGN50. e Flow cytometry analyses of cell proliferation and apoptosis induction. Cells were incubated with VGN50 or mutant peptide (three alanine substitutions) for 24 h followed by measurements of percentage cell proliferation (Ki67 staining) and apoptosis induction (Annexin V staining). Standard deviation bars are included. (n = 3) Two-way Anova, followed by Sidak’s multiple comparisons test. f The effect of VGN50 on various cancer cell types. MTT assays were performed with the indicated cell lines treated with various VGN50 concentrations. The OD of mock-treated samples were set as 100%, and OD from detergent-treated cells were set as 0%. Mean percentage viability ±SD was calculated for each treatment (n = 3 samples/treatment). g Viability assay with flow cytometry. Cell viability was measured in triplicate with live/dead staining and the cell killing effects on cancer cells was compared with normal peripheral blood mononuclear cells (PBMC) from three healthy donors. Results are presented as mean percentage viability ±SD (n = 3 samples/group). f, g Ordinary one-way Anova, followed by Tukey’s multiple comparisons test. […]
Leukoreduction system chambers (LRS) from healthy donors were purchased from Vitalant. […] Cell death, apoptosis, and proliferation were analyzed by flow cytometry (BD Acuri) after intracellular staining with anti-humanKi67-Alexa488 (Biolegend, 1:100) along with the isotype control antibody, annexin-V-FITC with 7-AAD staining (Biolegend) according to the manufacture’s protocol, Live/dead Fixable Red Dead Cell staining kit (Invitrogen) according to the manufacture’s protocol, or MTT assay. […]

SMILES: CC[C@H](C)[C@H](NC(=O)[C@H](CO)NC(=O)[C@H](CO)NC(=O)[C@H](CC(C)C)NC(=O)[C@H](CC(C)C)NC(=O)[C@H](C)NC(=O)[C@H](CC(=O)O)NC(=O)CCNC(=O)[C@H](CCCNC(=N)N)NC(=O)[C@H](CCCNC(=N)N)NC(=O)[C@H](CCCNC(=N)N)NC(=O)[C@H](CCCN)NC(=O)[C@H](CCCNC(=N)N)NC(=O)[C@H](CCCNC(=N)N)NC(=O)[C@H](CCCCN)NC(=O)[C@H](CCCCN)NC(=O)[C@H](N)CCCNC(=N)N)C(=O)N[C@@H](CC(C)C)C(=O)N[C@@H](CCC(N)=O)C(=O)NCC(=O)N[C@@H](CC(C)C)C(=O)N[C@@H](Cc1ccc(O)cc1)C(=O)N[C@@H](CCC(N)=O)C(=O)N[C@@H](CC(C)C)C(=O)N[C@@H](CC(=O)O)C(=O)N[C@H](C(=O)O)[C@@H](C)O [Pep 3]
- Reduction of cell viability (MTT) compared to untreated control (BC-1, 16 µM): 90%

SMILES: CC[C@H](C)[C@H](NC(=O)[C@H](CO)NC(=O)[C@H](CO)NC(=O)[C@H](CC(C)C)NC(=O)[C@H](CC(C)C)NC(=O)[C@H](C)NC(=O)[C@H](CC(=O)O)NC(=O)[C@H](CC(=O)O)NC(=O)CCNC(=O)[C@H](CCCNC(=N)N)NC(=O)[C@H](CCCNC(=N)N)NC(=O)[C@H](CCCNC(=N)N)NC(=O)[C@H](CCCN)NC(=O)[C@H](CCCNC(=N)N)NC(=O)[C@H](CCCNC(=N)N)NC(=O)[C@H](CCCCN)NC(=O)[C@H](CCCCN)NC(=O)[C@H](N)CCCNC(=N)N)C(=O)N[C@@H](CC(C)C)C(=O)N[C@@H](CCC(N)=O)C(=O)NCC(=O)N[C@@H](CC(C)C)C(=O)N[C@@H](Cc1ccc(O)cc1)C(=O)O [Pep 4]
- Fold less effective compared to Pep 1 and 3 (MTT) (BC-1): ~ 4 fold

SMILES: CC[C@H](C)[C@H](NC(=O)[C@H](CO)NC(=O)[C@H](CO)NC(=O)CCNC(=O)[C@H](CCCNC(=N)N)NC(=O)[C@H](CCCNC(=N)N)NC(=O)[C@H](CCCNC(=N)N)NC(=O)[C@H](CCCN)NC(=O)[C@H](CCCNC(=N)N)NC(=O)[C@H](CCCNC(=N)N)NC(=O)[C@H](CCCCN)NC(=O)[C@H](CCCCN)NC(=O)[C@H](N)CCCNC(=N)N)C(=O)N[C@@H](CC(C)C)C(=O)N[C@@H](CCC(N)=O)C(=O)NCC(=O)N[C@@H](CC(C)C)C(=O)N[C@@H](Cc1ccc(O)cc1)C(=O)N[C@@H](CCC(N)=O)C(=O)N[C@@H](CC(C)C)C(=O)N[C@@H](CC(=O)O)C(=O)N[C@H](C(=O)O)[C@@H](C)O [Pep 2]
- Reduction of cell viability (MTT) compared to untreated control (BC-1, 64 μM): 20%
